# US12187720B2, “Compounds for treatment of cancer” (ONCTERNAL THERAPEUTICS, INC., priority 2010, dated 2025)
# Read-outs that look alike come from different tables or passages of the source.
# Tests used:
# HUVECs = experiment: Endothelial cell growth inhibition (SRB), HUVEC; format: cell-based, human
# NCI/ADR-RES = experiment: SRB cytotoxicity assay, P-gp over-expressing NCI/ADR-RES cells; format: cell-based, human; settings: NCI/ADR-RES versus OVCAR-8
# [1] = Metabolic stability in human liver microsomes; settings: for half-life at 0.5 μM: human, liver microsomes, pH 7.4
# [2] = system: tubulin (colchicine, vinblastine and paclitaxel binding sites); experiment: Mass spectrometry competitive binding assay on tubulin
# Source text: MS competition binding assay. […] Each reaction was run in triplicate.
# PC-3 xenografts = settings: for mice that lost more than 15% body weight: mouse, in vivo
# Source text: (§1) In vivo antitumor activity [tumor growth inhibition (% T/C), tumor growth delay (T-C value), and tumor cell kill (total log cell kill)].
# [3] = Rotarod test (in vivo neurotoxicity) in ICR mice; parameters: species or system mouse; settings: 1h 5 or 15 mg/kg, vinblastine 0.5 mg/kg, i.p. daily
# Method: Rotarod test. […] The rotarod test was performed twice a week.
# BCRP = experiment: in vitro; settings: human
# [4] = Metabolic stability in mouse liver microsomes; format: in vitro ADME; settings: for half-life at 0.5 μM: mouse, liver microsomes, pH 7.4, Table 20, read-out: Half life in Mouse liver microsome
# [5] = Metabolic stability in rat liver microsomes; format: in vitro ADME; settings: Table 20; for half-life at 0.5 μM: rat, liver microsomes, pH 7.4, read-out: Half life in Rat liver microsome
# [6] = Metabolic stability in dog liver microsomes; format: in vitro ADME; settings: Table 20; for half-life at 0.5 μM: dog, dog liver microsomes, pH 7.4, read-out: Half life in Dog liver microsome
# [7] = system: T1, tubulin colchicine binding site; experiment: [3H]-colchicine competition-binding scintillation proximity assay
# T1 construct: […]
# WM-164 melanoma cells = experiment: Microtubule imaging (immunofluorescence) in WM-164 melanoma cells; format: cell-based, human; settings: 18 h
# Source text: Primary antibody for tubulin and fluorescence-labeled secondary antibody were subsequently added to the cells. Cell nuclei were stained by DAPI. Whole Cell Stain Green was also applied to all cells. All images were acquired with an Olympus IX71 inverted fluorescence microscope (Olympus Corp., Tokyo, Japan) with overlays from separate images of tubulin (red), nuclei (blue), and whole cells (green).
# A375 cells = experiment: Cell cycle analysis (flow cytometry) in A375 cells; format: cell-based, human; settings: 24 h
# B16-F1 melanoma cells = experiment: B16-F1 melanoma colony formation assay in soft agar; format: cell-based, mouse; settings: 14 days
# Method: B16-F1 melanoma cells were plated at a colony-forming density (2000 cells per well on six-well plates) on top of 0.8% base agar. Cells were grown in 0.4% agar together with DMEM medium supplemented with fetal bovine serum and an antibiotic-antimycotic solution at 37° C. in an atmosphere of 95% air and 5% CO2. […] Compounds were added to the media from 1 mM DMSO stock solutions, and a corresponding dilution of DMSO was used as control. Cells were grown for 14 days. Plates were photographed, and the number of colonies was measured by Artek 880 Automated Colony Counter (Artek Systems Corporation, Farmingdale, NY).
# B16-F1 melanoma tumors = experiment: In vivo efficacy, B16-F1 melanoma in C57/BL mice; parameters: species or system mouse; settings: 13 days, C57BL/6 mice
# [8] = system: A375 human melanoma xenograft; experiment: In vivo efficacy, A375 human melanoma xenograft in mice
# Method: DTIC at 60 mg/kg was used as a positive control again.
# PC-3 and A375 tumor xenograft studies.
# as §1
# [9] = Metabolic stability in monkey liver microsomes; format: in vitro ADME; settings: Table 20; for half-life at 0.5 μM: monkey, monkey liver microsomes, pH 7.4, read-out: Half life in Monkey liver microsome
# in vitro = settings: human, microsomes, pH 7.4
# PC-3 = experiment: SRB cytotoxicity assay, PC-3 prostate cancer cells; format: cell-based, human; settings: Homo sapiens, PC-3; Table 16B; read-out: IC50 in PC3
# Source text: Cells were stained with SRB solution.
# Porcine brain tubulin = experiment: In vitro microtubule polymerization assay (porcine brain tubulin); format: biochemical; settings: 5 μM, at 15 min
# PC-3/TxR tumors = settings: PC-3/TxR xenograft, b.i.d × 5/w, end point day 26
# in vivo [10] = settings: Sprague-Dawley, rat, plasma
# [11] = Pharmacokinetic study in ICR mice
# [12] = Permeability (drug-like properties); settings: mean from duplicate studies
# [13] = Pharmacokinetic study in beagle dogs; settings: dog, in vivo
# glioma cells = experiment: SRB cytotoxicity assay, glioma cells; settings: read-out: potency in glioma cells
# [14] = Pharmacokinetic study in Sprague-Dawley rats
# MES-SA/DX5 = experiment: SRB growth inhibition assay, P-gp over-expressing MES-SA/DX5 cells; format: cell-based; settings: Table 6; read-out: IC50 ± SEM MES-SA/Dx5
# PC-3 cells = experiment: Apoptosis detection by ELISA (cytoplasmic DNA-histone complexes), PC-3 cells; format: cell-based, human; settings: PC-3 and A375 cells, 24 h
# Source text: The levels of DNA-histone complexes were used to represent cell apoptosis.
# Apoptosis detection by ELISA. Quantification of the enrichment of mono- and oligonucleosomes in the cytoplasm was used to determine the ability of the compounds to induce apoptosis (cell death detection ELISA PLUS, Roche, Germany) following the manufacturer's instructions.
# Bovine brain tubulin = experiment: In vitro tubulin polymerization assay (bovine brain tubulin); format: biochemical; settings: 10 μM
# in vivo [15] = settings: male, ICR, mouse, plasma, iv, 15 mg/kg
smiles,measurement,setting,value
COc1cccc2c1C(=O)c1c(O)c3c(c(O)c1C2=O)C[C@@](O)(C(=O)CO)C[C@@H]3O[C@H]1C[C@H](N)[C@H](O)[C@H](C)O1 [doxorubicin],times more active against endothelial cells than against cancer cells,HUVECs,not specific to endothelial cells
same,IC50,HUVECs; N = 3,274 nM
"COc1cc(C(=NC#N)c2csc(-c3ccccc3)n2)cc(OC)c1OC [2j, N-((2-phenylthiazol-4-yl)(3,4,5-trimethoxyphenyl)methylene)cyanamide]",Resistance factor,NCI/ADR-RES,0.4
same,half-life at 0.5 μM,[1],< 5 min
"CC[C@]1(O)C[C@@H]2CN(CCc3c([nH]c4ccccc34)[C@@](C(=O)OC)(c3cc4c(cc3OC)N(C)[C@H]3[C@@](O)(C(=O)OC)[C@H](OC(C)=O)[C@]5(CC)C=CCN6CC[C@]43[C@@H]65)C2)C1 [vinblastine, reference compound]",competition for tubulin binding sites,[2],did not inhibit the colchicine-tubulin binding
same,% T/C,"PC-3 xenografts; 0.5 mg/kg q2d, day 22",29%
same,% T/C,"PC-3 xenografts; Prostate (PC-3) xenograft, 0.5 mg/kg, q2d",29%
same,time on the rotating rod versus vehicle group,[3],gradually reduced the time
same,IC50,BCRP,25 ± 1 nM
"COc1cc(C(=O)c2c[nH]c(-c3ccc(C)cc3)n2)cc(OC)c1OC [12da, (2-(p-tolyl)-1H-imidazol-4-yl)(3,4,5-trimethoxyphenyl)methanone]",half-life at 0.5 μM,[4],8 min
same,half-life at 0.5 μM,[5],28 min
same,half-life at 0.5 μM,[6],17 min
same,colchicine site binding in words,[7],highest binding affinity
same,effect on microtubules,WM-164 melanoma cells,microtubule fragmentation
same,half-life at 0.5 μM,[1],23 min
"COc1ccc(-c2nc(C(=O)c3ccc(F)cc3)c[nH]2)cc1 [12cb, (4-fluorophenyl)(2-(4-methoxyphenyl)-1H-imidazol-4-yl)methanone]",concentration from which most cells are arrested in the G2/M phase,A375 cells,200 nM
same,concentration with effective inhibition of colony formation,B16-F1 melanoma cells,20 nM
same,effect on microtubules,WM-164 melanoma cells,microtubule fragmentation
"CN(C)/N=N/c1[nH]cnc1C(N)=O [DTIC, reference compound]",tumor growth inhibition (TGI value),B16-F1 melanoma tumors; 60 mg/kg,51%
same,tumor growth inhibition (TGI value),"[8]; 60 mg/kg, 31 days, SHO mice",52%
"COc1cc(C(=O)c2csc(-c3ccc(O)cc3)n2)cc(OC)c1OC [2l, (2-(4-Hydroxyphenyl)thiazol-4-yl)(3,4,5-trimethoxyphenyl)methanone]",half-life at 0.5 μM,[4],11 min
same,half-life at 0.5 μM,[5],49 min
same,half-life at 0.5 μM,[6],30 min
same,half-life at 0.5 μM,[9],8 min
same,half-life at 0.5 μM,in vitro,20 min
"COc1cc(C(=O)c2cn(C)c(-c3ccc(C)cc3)n2)cc(OC)c1OC [12dab, (1-methyl-2-(p-tolyl)-1H-imidazol-4-yl)(3,4,5-trimethoxyphenyl)methanone]",half-life at 0.5 μM,[4],< 5 min
same,half-life at 0.5 μM,[5],12 min
same,half-life at 0.5 μM,[6],46 min
same,half-life at 0.5 μM,in vitro,21 min
"COc1cc(C(=O)c2csc(Nc3ccc4[nH]ccc4c3)n2)cc(OC)c1OC [compound 55, (2-(1H-INDOL-5-YLAMINO)THIAZOL-4-YL)(3,4,5-TRIMETHOXYPHENYL)METHANONE]",IC50,PC-3,28 nM
same,inhibition of tubulin polymerization,Porcine brain tubulin,40%
same,competition for tubulin binding sites,[2],competed effectively with colchicine
same,Tumor size End,PC-3/TxR tumors; PO 10 mpk,1152 ± 433 mm^3
same,Tumor size End,PC-3/TxR tumors; PO 30 mpk,101 ± 19 mm^3
same,bioavailability,"in vivo [10]; ICR, beagle, po",24 to 36%
same,"clearance in words, mice","[11]; mouse, in vivo",moderate clearance
same,Papp(A→B) in CaCO-2 assay,[12],99 10^−6 cm/s
same,"clearance in words, dogs",[13],moderate clearance
same,IC50,glioma cells,22 nM
same,"clearance in words, rats","[14]; rat, in vivo",low clearance
"O=C(c1ccc(F)cc1)c1c[nH]c(-c2ccc(Cl)cc2)n1 [12fb, (2-(4-chlorophenyl)-1H-imidazol-4-yl)(4-fluorophenyl)methanone]",tumor growth inhibition (TGI value),B16-F1 melanoma tumors; 45 mg/kg,82%
same,tolerability,"[8]; 25 mg/kg, SHO mice",well tolerated
same,half-life at 0.5 μM,in vitro,37 min
COc1cc(C(=O)c2csc(-c3ccc(F)cc3)n2)cc(OC)c1OC [2k],IC50,MES-SA/DX5,19 nM
same,Half life in Mouse liver microsome,[4]; Table 20,9 min
same,Half life in Rat liver microsome,[5],32 min
same,Half life in Dog liver microsome,[6],16 min
same,Half life in Monkey liver microsome,[9],<5 min
same,T-C (tumor growth delay),"[8]; Melanoma (A375) xenograft, 15 mg/kg i.p.",11 days
same,Total log cell kill,"[8]; Melanoma (A375) xenograft, 15 mg/kg i.p., doubling time 4.6 d",0.7
same,% T/C,PC-3 xenografts; 5 mg/kg i.p.,21%
same,% T/C,PC-3 xenografts; 15 mg/kg i.p.,24%
same,% T/C,"PC-3 xenografts; Prostate (PC-3) xenograft, 5 mg/kg i.p., 21 days",21%
same,% T/C,"PC-3 xenografts; Prostate (PC-3) xenograft, 15 mg/kg i.p., 21 days",24%
same,mice that lost more than 15% body weight,PC-3 xenografts,2 out of 7
same,concentration inducing apoptosis,PC-3 cells,50 nM
same,dose that did not cause greater than 10% loss of body weight,"mouse, in vivo, ip",≤ 15 mg/kg
same,AUC,"[11]; Mice, 15 mg/kg i.v.",22000 ng·h/mL
same,CL,"[11]; Mice, 15 mg/kg i.v.",112 mL/min/kg
same,Vss,"[11]; Mice, 15 mg/kg i.v.",6.6 L/kg
same,half life in human liver microsome,[1]; Table 20,10 min
CC(C)NCC(O)COc1cccc2ccccc12 (stereo not drawn) [Propranolol],Papp(A→B) in CaCO-2 assay,[12],(19) 10^−6 cm/s
"COc1cc(C(=O)c2csc(-c3ccccc3)n2)cc(OC)c1OC [1h, (2-Phenyl-thiazol-4-yl)-(3,4,5-trimethoxy-phenyl)-methanone]",inhibition of tubulin polymerization,Bovine brain tubulin; 15 min,90%
same,inhibition of tubulin polymerization,"Bovine brain tubulin; 20 min incubation, versus vehicle",47%
same,half-life at 0.5 μM,[4],< 5 min
same,half-life at 0.5 μM,[5],31 min
same,half-life at 0.5 μM,[6],19 min
same,half-life at 0.5 μM,[9],< 5 min
same,competition for tubulin binding sites,[2],specifically competed with colchicine binding to tubulin
same,T-C (tumor growth delay),"[8]; Melanoma (A375) xenograft, 20 mg/kg i.p.",10 days
same,Total log cell kill,"[8]; ip, 20 mg/kg, 110.4 h",0.7
same,% T/C,PC-3 xenografts; 5 mg/kg i.p.,29%
same,% T/C,PC-3 xenografts; 15 mg/kg i.p.,4%
same,% T/C,"PC-3 xenografts; ip, 15 mg/kg, 504 h",4%
same,mice that lost more than 15% body weight,PC-3 xenografts,1 of 8
same,concentration inducing apoptosis,PC-3 cells,50 nM
same,time on the rotating rod versus vehicle group,[3],no significant difference
same,dose that did not cause greater than 10% loss of body weight,"ICR mice, 4 consecutive days of intraperitoneal dosing",up to 30 mg/kg
same,Vd,"in vivo [10]; iv, […]",7.6 L/kg
same,clearance,"in vivo [10]; iv, […]",6 mL/min/kg
same,half-life,"in vivo [10]; iv, […]",1440 min
same,clearance,"in vivo [10]; female, iv",7.7 ± 1 mL/min/kg
same,AUC,in vivo [15],1900 ng·h/mL
same,half-life,in vivo [15],140 min
same,Vss (volume of distribution following intravenous dosing),"[14]; IV, […] (1h, 2r), 5 mg/kg (5Ha, 5Hc)",4.9 ± 1.9 L/kg
same,RatPK_PO10mgk_AUC,"[14]; rat, PO 10 mg/kg",37 µg·min/mL
same,"F (percent oral bioavailability), rat","[14]; rats, PO versus IV",3.3%
